Results as given in PMC10950972, “Relative bioavailability of fedratinib through various alternative oral administration methods in healthy adults” (Cancer Chemotherapy and Pharmacology, 2023).
Like-named read-outs stand apart in the source and are kept apart here.

How the values were obtained:
[1] = In vitro drug recovery from the nasogastric tube and stability in suspension (data on file); type: physicochemical; conditions: in vitro studies
From the text: Reduced exposure was also unlikely to be due to misplacement of the nasogastric tube, as placement was confirmed through X-ray imaging (data on file). The differences in exposure to fedratinib between treatments 2B, 2C, and 2A were likely to be due to interparticipant variability. Furthermore, the 90% CI for the difference in exposure to fedratinib between treatments 2B and 2A fell within the 0.8–1.25 range conventionally defined as having no clinical effect.

[2] = Phase 1 relative bioavailability study part 1: plasma pharmacokinetics of fedratinib (2-period crossover); type: in vivo, human; conditions: for AUC(0-t) / AUC(0-inf) / Cmax / Tmax / half-life: human, plasma, po, 400 mg; for half-life: read-out: t½, mean (SD) (converted)
Procedure: Study part 1 was a 2-period, 2-sequence, open-label, crossover design (Fig. 1A). Treatment 1A (reference) consisted of fedratinib 400 mg (4 × 100-mg capsules) administered orally along with approximately 180 mL of a commercially available nutritional supplement (ie, Ensure Plus). Treatment 1B (test) consisted of fedratinib 400 mg dispersed in a nutritional supplement and administered orally. Participants were randomized to receive treatment in one of the following sequences: 1A–1B or 1B–1A. […] No food or beverages (except water and any nutritional supplement administered with the treatment) were allowed for at least 4 h after dosing.
Approximately 1 h before each fedratinib administration, ondansetron oral tablet (film coated) 8 mg was given orally to reduce the potential for fedratinib-related nausea and vomiting. There was a washout period of at least 12 days between each dose of fedratinib. The duration from screening through the follow-up phone call was approximately 10 weeks. Participants resided at the clinical site from days -1 to 23 (study part 1), or days -1 to 35 (study part 2). If a participant discontinued from the study for any reason, an early termination visit was performed, with only the safety assessments scheduled for the day of discharge taking place. Additionally, each participant who discontinued also received a follow-up phone call 4 (± 2) days after completion of the early termination visit.
For study part 1, and part 2 treatments 2A and 2B, blood samples were collected pre-dose (0 h) and at 0.5, 1, 1.5, 2, 3, 4, 6, 8, 12, 24, 48, 72, 120, 168, 192, and 240 h post-dose. For treatment 2C, blood samples were collected pre-dose (0 h) and at 0.5, 1, 1.5, 2, 3, 4, 6, 8, 12, 12.5, 13, 13.5, 14, 15, 16, 18, 24, 48, 72, 120, 168, 192, and 240 h post-dose of the first dose. The plasma concentration of fedratinib was measured using a validated liquid chromatography-tandem mass spectrometry assay with a lower limit of quantification of 1.00 ng/mL [12, 20].
Plasma PK parameters were calculated using noncompartmental methods by a validated PK analysis program (Phoenix® WinNonlin®, v8.3.4 [Certara USA, Inc., Princeton, NJ, USA]) using actual times. The PK parameters determined for fedratinib Cmax, Tmax, AUC from time 0 to the time of the last quantifiable concentration (AUC0–t), AUC from time 0 to infinity (AUC0–∞), and t½. Additionally for treatment 2C, Cmax and Tmax were estimated after both the first dose (Cmax and Tmax) and the second dose (Cmax2 and Tmax2). AUC0–t and AUC0–∞ were estimated from time 0 (the first dose) through 240 h after the first dose. AUC parameters were calculated using the linear-log trapezoidal method.
The sample size for this study was based on consideration of the precision in the comparison of PK parameters, represented by the 90% confidence interval (CI) of the geometric mean ratios of Cmax and AUC of fedratinib. […] Only participants with valid PK data were included in the summary statistics and statistical analysis.
To compare the PK parameters and estimated relative bioavailability of fedratinib following different administration methods in each study part (treatment 1B to 1A, and treatment 2B and 2C to 2A), a linear mixed-effect model with treatment, period, and sequence as fixed effects and participant nested within sequence as a random effect was fitted to the natural log-transformed PK parameters (Cmax, AUC0–t, and AUC0–∞) for use in estimation of effects and construction of CIs.
In study parts 1 and 2, point estimates and 90% CI for the difference between test and reference treatments was exponentiated, and the ratio of geometric means (test/reference) and associated 90% CI was presented on the original scale. For comparison of treatment 2C to 2A in study part 2, the relative bioavailability assessment was based on only AUC. For Tmax, the difference between test and reference was assessed for significance using Wilcoxon signed-rank test. […]

[3] = design: method as in PMID 27136912; conditions: 100 mg and 500 mg doses, healthy volunteers; cited from earlier work
[4] = system: patients with myelofibrosis; conditions: cited from earlier work
healthy adults = experiment: Safety assessment (adverse events) in the phase 1 study; type: in vivo, human
Procedure: Participants were monitored for adverse events (AEs) during the study, including assessments for clinical symptoms, biochemical, hematologic, and urinalysis laboratory results, physical examinations, 12-lead electrocardiograms, and vital signs. AEs were assessed for seriousness, severity, and relationship to the drug. AEs were assigned to the last study treatment administered at the time of onset, starting during or after the administration of the first dose. AEs that occurred after discharge were assigned to the last study treatment received for up to 30 days after the last dose of fedratinib.

[5] = Treatment 1B vs 1A (dispersed oral vs intact capsules), linear mixed-effect model

Compound: Cc1cnc(Nc2ccc(OCCN3CCCC3)cc2)nc1Nc1cccc(S(=O)(=O)NC(C)(C)C)c1 [fedratinib]
- Drug recovery from the nasogastric tube [1]: near-complete drug recovery
- Stability in suspension [1]: stable up to 1 h in suspension
- AUC0–∞ geometric mean ratio (90% CI) [2, 5]: 1.009 (0.939–1.085)
- Cmax geometric mean ratio (90% CI) [2, 5]: 1.059 (0.969–1.157)
- AUC(0-t) ([2]; Treatment 1A: single 400 mg oral, 4 × 100-mg intact capsules with nutritional supplement, n = 27, read-out: AUC0–t, geometric mean (Geo. %CV)): 20000 ng·h/mL
- AUC(0-inf) ([2]; Treatment 1A: single 400 mg oral, 4 × 100-mg intact capsules with nutritional supplement, n = 27, read-out: AUC0–∞, geometric mean (Geo. %CV)): 22100 ng·h/mL
- Cmax ([2]; Treatment 1A: single 400 mg oral, 4 × 100-mg intact capsules with nutritional supplement, n = 27, read-out: Cmax, geometric mean (Geo. %CV)): 1320 ng/mL
- Tmax ([2]; Treatment 1A: single 400 mg oral, 4 × 100-mg intact capsules with nutritional supplement, n = 27, read-out: Tmax, median (range)): 2.1 h
- half-life ([2]; Treatment 1A: single 400 mg oral, 4 × 100-mg intact capsules with nutritional supplement, n = 27): 103 h
- AUC(0-t) ([2]; Treatment 1A: single 400 mg oral, intact capsules with nutritional supplement, n = 27, read-out: AUC0–t, geometric mean (statistical analysis)): 20400 ng·h/mL
- AUC(0-inf) ([2]; Treatment 1A: single 400 mg oral, intact capsules with nutritional supplement, n = 27, read-out: AUC0–∞, geometric mean (statistical analysis)): 22500 ng·h/mL
- Cmax ([2]; Treatment 1A: single 400 mg oral, intact capsules with nutritional supplement, n = 27, read-out: Cmax, geometric mean (statistical analysis)): 1350 ng/mL
- Tmax ([2]; Treatment 1A: single 400 mg oral, intact capsules with nutritional supplement, n = 27, read-out: Tmax, median (statistical analysis)): 2.57 h
- AUC(0-t) ([2]; Treatment 1B: single 400 mg oral, capsule contents dispersed in nutritional supplement, n = 26, read-out: AUC0–t, geometric mean (Geo. %CV)): 20500 ng·h/mL
- AUC(0-t) ([2]; Treatment 1B: single 400 mg oral, capsule contents dispersed in nutritional supplement, n = 26, read-out: AUC0–t, geometric mean (statistical analysis)): 20500 ng·h/mL
- AUC(0-inf) ([2]; Treatment 1B: single 400 mg oral, capsule contents dispersed in nutritional supplement, n = 26, read-out: AUC0–∞, geometric mean (Geo. %CV)): 22700 ng·h/mL
- AUC(0-inf) ([2]; Treatment 1B: single 400 mg oral, capsule contents dispersed in nutritional supplement, n = 26, read-out: AUC0–∞, geometric mean (statistical analysis)): 22700 ng·h/mL
- Cmax ([2]; Treatment 1B: single 400 mg oral, capsule contents dispersed in nutritional supplement, n = 26, read-out: Cmax, geometric mean (Geo. %CV)): 1430 ng/mL
- Cmax ([2]; Treatment 1B: single 400 mg oral, capsule contents dispersed in nutritional supplement, n = 26, read-out: Cmax, geometric mean (statistical analysis)): 1430 ng/mL
- Tmax ([2]; Treatment 1B: single 400 mg oral, capsule contents dispersed in nutritional supplement, n = 26, read-out: Tmax, median (statistical analysis)): 2 h
- half-life ([2]; Treatment 1B: single 400 mg oral, capsule contents dispersed in nutritional supplement, n = 26): 98.7 h
- Increases in exposure (Cmax, AUC) when administered directly after food vs 10-h fasted [3]: < 25%
- Terminal elimination half-life (t½), fed vs fasted conditions [3]: remained unaffected
- Patients who experienced nausea ([4]; FREEDOM study): 39.5%
- Patients who experienced nausea ([4]; JAKARTA trial): 62%
- Deaths or serious/severe AEs (healthy adults; during the study, all treatments): no deaths or serious/severe AEs were reported
- AE constipation, participants (healthy adults; human, in vivo): 12.1%
- AE diarrhea, participants (healthy adults; human, in vivo): 10.3%
- AE somnolence, participants (healthy adults; human, in vivo): 10.3%
- Moderate AEs reported (number of AEs) (healthy adults; human, in vivo): 4
- Participants discontinued due to AEs (healthy adults; human, in vivo): 3 participants
- Participants with at least 1 AE (healthy adults; human, in vivo): 65.5%
